# Structures can show the parent of a compound that is named as a salt. Where two headings read alike, the source gives them in different places.
# Columns and labels:
# male NMRI-mice [1] = assay: minimum symptom dose (Campbell and Richter); format: in vivo; design: key: (*): symptoms already indicating toxic area; details: i.p., changes in behavior in 2 out of 3 mice
# Method: The minimum symptom dose is determined in male NMRI-mice (body weight range 18-22 g) according to the procedure of Campbell and Richter (see D. E. S. Campbell and W. Richter, Acta Pharmacol. Toxicol. 25 (1967), pp. 345-363). The minimum symptom dose is defined as that dose in μmol/kg which after i.p. administration causes changes in behavior in 2 out of 3 mice. The minimum symptom dose is a measure for evaluations undesirable side effects.
# [2] = acute toxicity (LD50) in mice; format: in vivo; details: mouse, in vivo, male NMRI-mice, mortality on 7th day
# Method: (§1) The acute toxicity of the compounds is determined in male NMRI-mice (body weight range 18-22 g) after oral (p.o.) and intraperitonal (i.p.) administration. The LD50 is defined as that dose in μmol/kg which causes a 50% mortality rate of the test animals on the 7th day after application. The calculation of the LD50 is carried out by probitanalysis (see L. Cavalli-Sforza, Grundbegriffe der Biometric, Gustav Fischer Verlag Stuttgart (1964)).
# [3] = system: male Wista rats (aconitine); assay: aconitine infusion in rats, heart rhythm disruption (Raschak); format: in vivo; details: 1/20th of the LD50, concurrent aconitine infusion, time difference vs control
# Method: To determine the influence of the active ingredient on male Wista rats (weighing 280 to 350 g), infusion with aconitine according to the method of Raschak is carried out (M. Raschak, Arzneim. Forschung (Drug Research) 25 (4) (1975) pp. 639-641). The results are given as the difference (that is, the difference in time as Δ%) between the active substance and a control sample in bringing about a disruption of heart rhythms (extrasystolic (ES), ventricular tachicardiea (VT), chamber flutter (KF)). In the control sample the active ingredient is replaced by a vehicle such as isotonic NaCl-solution or solution medium. The administration of the active ingredient is in a dosage of 1/20th of the LD50 and a constant concurrent infusion per unit of time of aconitine.
# isolated left atria = assay: functional refractory period (FRP) and contraction force (CF) in isolated left atria, double stimulus method of Govier; design: species or system female guinea pigs; details: for ratio between contraction force-reducing dose and functional refractory period-prolonging dose: CF/FRP, indication of therapeutic range, 18 min; for EC (FRP prolonged to 125%) / IC25: Cavia porcellus, 0.3 h, isolated left atria of guinea pig, 18 minutes after application; for EC (FRP prolonged to 125%): read-out: concentration prolonging functional refractory period (FRP) to 125% of starting value; for IC25: read-out: concentration reducing contraction force (CF) to 75% of starting value
# Method: The prolongation of the functional refractory period (FRP) and the contraction force (CF) in the isolated left atria of female guinea pigs (albinopirbright-white guinea pigs, body weight range 300-400 g) are determined according to the double stimulus method of Govier (see W. C. Govier, J. Pharmakol, Exp. Ther. 148 (1965) pp. 100-105). The concentrations which are given in the table below are the concentrations in […] which 18 minutes after application leads to a prolongation of the functional refractory period to 125% or respectively to a reduction of the contraction force to 75% of the starting value. Furthermore the ratio between contraction force-reducing dose and functional refractory period-prolonging dose is given. This ratio is an indication of the therapeutic range of the antiarrhythmic effect on the isolated organ (see K. Greef, Verh. Dtsch. Ges. Kreislaufforsch. 35 (1969) pp. 88-97).
# male NMRI-mice [4] = assay: acute toxicity (LD50) in mice; format: in vivo; details: i.p., mortality on 7th day
# Method: as §1
SMILES,Min. Symptom-dose (male NMRI-mice [1]),"LD50 at 168 h ([2]; ip, i.p., read-out: LD50 i.p.)","LD50 at 168 h ([2]; po, p.o., read-out: LD50 p.o.)","Aconitin-Rat, ES (extrasystolic), Δ % [3]","Aconitin-Rat, KF (chamber flutter), Δ % [3]","Aconitin-Rat, VT (ventricular tachycardia), Δ % [3]",ratio between contraction force-reducing dose and functional refractory period-prolonging dose (isolated left atria),EC (FRP prolonged to 125%) (isolated left atria),IC25 (isolated left atria),LD50 i.p. (male NMRI-mice [4])
"CCCC[N+]12C(O)C(CC)C3CC1C1N(C)c4ccc(Br)cc4C14CC2C3C4O (stereo not shown) [Example 14.b, Nb-butyl-10-bromoisoajmalinium hydrogen tartrate]",20 µmol/kg,76 µmol/kg,198 µmol/kg,+80%,+88%,+87%,0.7,2 µM,1.5 µM,–
"CCCCCCCCCC[N+]12C(O)C(CC)C3CC1C1N(C)c4ccc(Br)cc4C14CC2C3C4O (stereo not shown) [Example 15.b, Nb-decyl-10-bromoisoajmalinium hydrogen tartrate]",287 µmol/kg,72 µmol/kg,> 1440 µmol/kg,n.s.,n.s.,n.s.,4.6,24.8 µM,113 µM,–
"CCC1C2CC3C4N(C)c5ccc(Br)cc5C45CC(C2C5O)[N+]3(Cc2ccccc2)C1O (stereo not shown) [Example 16.b, Nb-benzyl-10-bromoisoajmalinium hydrogen tartrate]",(*),483 µmol/kg,2280 µmol/kg,+36%,+31%,+30%,6.1,2.7 µM,16.6 µM,–
"CCC1C2CC3C4N(C)c5ccc(Br)cc5C45CC(C2C5O)[N+]3(CCCN(CC)CC)C1O (stereo not shown) [Example 19.b, Nb-diethylaminopropyl-10-bromoisoajmalinium bishydrogen tartrate]",31 µmol/kg,122 µmol/kg,686 µmol/kg,+220%,+158%,+180%,0.5,4.4 µM,2 µM,–
"CCC1C2CC3C4N(C)c5ccc(Br)cc5C45CC(C2C5O)[N+]3(CC(O)c2ccccc2)C1O (stereo not shown) [Example 21, Nb-(2-hydroxy-2-phenylethyl)-10-bromoisoajmalinium hydrogen tartrate]",–,250 µmol/kg,2180 µmol/kg,+89%,+72%,+92%,0.8,3.8 µM,3.2 µM,–
"CCC1C2CC3C4N(C)c5ccc(Br)cc5C45CC(C2C5O)[N+]3(CC(O)CN2CCCCC2)C1O (stereo not shown) [Example 22, Nb-(2-hydroxy-3-(1-piperidinyl)propyl)-10-bromoisoajmalinium hydrogen tartrate]",72 µmol/kg,–,550 µmol/kg,+154%,+110%,+121%,–,8.1 µM,3.4 µM,168 µmol/kg
"CCC[N+]12C(O)C(CC)C3CC1C1N(C)c4ccccc4C14CC2C3C4O (stereo not shown) [Neo-Gilurytmal, Nb -propyl ajmalinium hydrogen tartrate, reference compound]",12 µmol/kg,–,–,+86%,+50%,+80%,–,1.8 µM,0.26 µM,–

# — patent US4554274A, “Nb Quaternary derivatives of ajmaline and isoajmaline, methods and intermediate products in the manufacture of their derivatives and method of using same and pharmaceutical compositions thereof” (priority 1979, dated 1985)
